Measurements reported in ChEMBL document CHEMBL1128963, “A non-peptide ligand for the somatostatin receptor having a benzodiazepinone structure” (Bioorg Med Chem Lett, 1996).

Each molecule was assayed against Somatostatin receptor (assay: Compound was tested for its inhibitory effect against somatostatin receptor in rat cortex membrane using [125I]Tyr3-octreotide as the radioligand).
Type: cell membranes

IC50 [µM] | Log Ki | SMILES
6.5 | -5.2 | NCCCCCN1C(=O)C(Cc2c[nH]c3ccccc23)N(C(=O)c2ccccc2)Cc2ccccc21 (single isomer, unassigned; (-))
7 | -5.1 | NCCCCCN1C(=O)C(Cc2c[nH]c3ccccc23)N(C(=O)c2ccccc2)Cc2ccccc21 (stereo in doubt; 2)
8.2 | – | NCCCCCN1C(=O)C(Cc2c[nH]c3ccccc23)N(C(=O)c2ccccc2)Cc2ccccc21 (stereo in doubt; (+)2)

SMILES | IC50 [µM] | Log Ki
C[C@H](N)C(=O)NCC(=O)N[C@@H]1CSSC[C@@H](C(=O)O)NC(=O)[C@H](CO)NC(=O)[C@@H]([C@@H](C)O)NC(=O)[C@H](Cc2ccccc2)NC(=O)[C@@H]([C@@H](C)O)NC(=O)[C@H](CCCCN)NC(=O)[C@H](Cc2c[nH]c3ccccc23)NC(=O)[C@H](Cc2ccccc2)NC(=O)[C@@H](Cc2ccccc2)NC(=O)[C@H](CC(N)=O)NC(=O)[C@@H](CCCCN)NC1=O [SOMATOSTATIN RECEPTOR LIGAND] | 0.00043 | –
